ChEMBL document CHEMBL1122681, “(Acylaryloxy)acetic acid diuretics. 5. [(2-Alkyl- and 2,2-disubstituted-1,3-dioxo-5-indanyl)oxy]acetic acids” (J Med Chem, 1984)

Key:
Pan troglodytes [1] = assay: Compound was evaluated for diuretic activity in chimpanzee measured as increase in volume of urine at 1 mg/kg; assay type: functional
Pan troglodytes [2] = assay: Compound was evaluated for diuretic activity in chimpanzee measured as increase in the number of microequivalents of K+ /min at 0.5 mg/kg; assay type: functional, Urine
Pan troglodytes [3] = assay: Compound was evaluated for diuretic activity in chimpanzee measured as clearance of […] and urate after peroral administration of 5 mg/kg; assay type: functional, Urine; conditions: route oral
Pan troglodytes [4] = assay: Compound was evaluated for diuretic activity in chimpanzee measured as increase in the number of microequivalents of Na+ /min at 0.5 mg/kg; assay type: functional, Urine
Pan troglodytes [5] = assay: Compound was evaluated for diuretic activity in chimpanzee measured as increase in volume of urine at 0.5 mg/kg; assay type: functional
Pan troglodytes [6] = assay: Compound was evaluated for diuretic activity in chimpanzee measured as clearance of […] and urate after intra venous administration of 0. 5 mg/kg.; assay type: functional, Urine
Pan troglodytes [7] = assay: Compound was evaluated for diuretic activity in chimpanzee measured as increase in the number of microequivalents of K+ /min at 1 mg/kg; assay type: functional, Urine
Pan troglodytes [8] = assay: (§1) Compound was evaluated for diuretic activity in chimpanzee measured as increase in the number of microequivalents of Cl- electrolyte/min at 1 mg/kg; assay type: functional, Urine
Pan troglodytes [9] = assay: as §1; assay type: functional, Urine; remark: listed apart in the source
Pan troglodytes [10] = assay: (§2) Compound was evaluated for diuretic activity in chimpanzee measured as increase in the number of microequivalents of Na+ /min at 1 mg/kg; assay type: functional, Urine
Canis familiaris [11] = assay: Compound was evaluated for diuretic activity, administered orally in female mongrel dogs (5 mg/kg) measured as milliequivalents of Cl-; assay type: functional, Canis lupus familiaris, Urine
Canis familiaris [12] = assay: Compound was evaluated for diuretic activity, in female mongrel dogs by measuring amount of Na+ in urine after iv administration of 5 mg/kg (control/compound treatment results) Control = 37; assay type: functional, Canis lupus familiaris
Pan troglodytes [13] = assay: as §2; assay type: functional, Urine; remark: listed apart in the source
Pan troglodytes [14] = assay: Compound was evaluated for diuretic activity in chimpanzee measured as increase in the number of microequivalents of Na+ /min at 5 mg/kg; assay type: functional, Urine
Canis familiaris [15] = assay: Compound was evaluated for diuretic activity, administered orally in female mongrel dogs (5 mg/kg) measured as milliequivalents of K; assay type: functional, Canis lupus familiaris, Urine
Pan troglodytes [16] = assay: Compound was evaluated for diuretic activity in chimpanzee measured as increase in the number of microequivalents of Cl- electrolyte/min at 5 mg/kg; assay type: functional, Urine
Pan troglodytes [17] = assay: Compound was evaluated for diuretic activity in chimpanzee measured as increase in the number of microequivalents of K+ /min at 5 mg/kg; assay type: functional, Urine
Pan troglodytes [18] = assay: Compound was evaluated for diuretic activity in chimpanzee measured as increase in volume of urine at 5 mg/kg; assay type: functional
Canis familiaris [19] = assay: Compound was evaluated for diuretic activity, in female mongrel dogs by measuring amount of Cl- in urine after iv administration of 5 mg/kg (control/compound treatment results) Control = 6; assay type: functional, Canis lupus familiaris
Canis familiaris [20] = assay: Compound was evaluated for diuretic activity, in female mongrel dogs by measuring amount of K+ in urine after iv administration of 5 mg/kg (control/compound treatment results) Control = 5; assay type: functional, Canis lupus familiaris
Canis familiaris [21] = species on record: Canis familiaris; assay: Volume of urine in dog; assay type: ADME, organism-based, Canis lupus familiaris; conditions: in vivo
Pan troglodytes [22] = assay: Compound was evaluated for diuretic activity in chimpanzee measured as clearance of […] and urate after intra venous administration of 1 mg/kg; assay type: functional, Urine
Canis familiaris [23] = assay: Compound was evaluated for diuretic activity, administered orally in female mongrel dogs (5 mg/kg) measured as milliequivalents of Na; assay type: functional, Canis lupus familiaris, Urine
Canis familiaris [24] = assay: (§3) Compound was evaluated for diuretic activity, in female mongrel dogs by measuring volume of urine, after iv administration of 5 mg/kg (control/compound treatment results) Control = 1; assay type: functional, Canis lupus familiaris
Canis familiaris [25] = assay: Compound was evaluated for diuretic activity, in female mongrel dogs by measuring amount of Na+ in urine after iv administration of 5 mg/kg (control/compound treatment results) Control = 29; assay type: functional, Canis lupus familiaris
Rattus norvegicus [26] = assay: Compound was evaluated for diuretic activity administered orally in female rats measured as milliequivalents of K+x 100 / cage at 81 mg/kg; assay type: functional, Urine; conditions: route oral
Canis familiaris [27] = species on record: Canis familiaris; assay: volume of urine in dog; assay type: ADME, organism-based, Canis lupus familiaris; conditions: in vivo
Rattus norvegicus [28] = assay: Compound was evaluated for diuretic activity administered orally in female rats measured as milliequivalents of Na+x 100 / cage at 27 mg/kg; assay type: functional, Urine; conditions: route oral
Pan troglodytes [29] = assay: Compound was evaluated for diuretic activity in chimpanzee measured as clearance of […] and urate after intra venous administration of 1 mg/kg.; assay type: functional, Urine
[30] = volume of urine at 81 mg/kg; assay type: ADME, organism-based; design: dose 81 mg/kg; conditions: in vivo
Canis familiaris [31] = assay: Compound was evaluated for diuretic activity, in female mongrel dogs by measuring amount of K+ in urine after iv administration of 5 mg/kg (control/compound treatment results) Control = 18; assay type: functional, Canis lupus familiaris
Rattus norvegicus [32] = assay: Compound was evaluated for diuretic activity administered orally in female rats measured as milliequivalents of K+x 100 / cage at 27 mg/kg; assay type: functional, Urine; conditions: route oral
[33] = volume of urine at 27 mg/kg; assay type: ADME, organism-based; design: dose 27 mg/kg; conditions: in vivo
Canis familiaris [34] = assay: Compound was evaluated for diuretic activity, in female mongrel dogs by measuring amount of Cl- in urine after iv administration of 5 mg/kg (control/compound treatment results) Control = 1; assay type: functional, Canis lupus familiaris
Rattus norvegicus [35] = assay: Compound was evaluated for diuretic activity administered orally in female rats measured as milliequivalents of Na+x 100 / cage at 81 mg/kg; assay type: functional, Urine; conditions: route oral
Rattus norvegicus [36] = assay: Compound was evaluated for diuretic activity administered orally in female rats measured as milliequivalents of Cl-x 100 / cage at 81 mg/kg; assay type: functional, Urine; conditions: route oral
Rattus norvegicus [37] = assay: Compound was evaluated for diuretic activity administered orally in female rats measured as milliequivalents of Cl-x 100 / cage at 3 mg/kg; assay type: functional, Urine; conditions: route oral
Rattus norvegicus [38] = assay: Compound was evaluated for diuretic activity administered orally in female rats measured as milliequivalents of K+x 100 / cage at 3 mg/kg; assay type: functional, Urine; conditions: route oral
Rattus norvegicus [39] = assay: Compound was evaluated for diuretic activity administered orally in female rats measured as milliequivalents of Na+x 100 / cage at 3 mg/kg; assay type: functional, Urine; conditions: route oral
Rattus norvegicus [40] = assay: Compound was evaluated for diuretic activity administered orally in female rats measured as milliequivalents of Cl-+x 100 / cage at 27 mg/kg; assay type: functional, Urine; conditions: route oral
Rattus norvegicus [41] = assay: Compound was evaluated for diuretic activity administered orally in female rats measured as milliequivalents of Na+x 100 / cage at 9 mg/kg; assay type: functional, Urine; conditions: route oral
[42] = volume of urine at 9 mg/kg; assay type: ADME, organism-based; design: dose 9 mg/kg; conditions: in vivo
Canis familiaris [43] = assay: as §3; assay type: ADME, organism-based, Canis lupus familiaris; design: dose 5 mg/kg, route intravenous; conditions: dog, in vivo
Rattus norvegicus [44] = assay: Compound was evaluated for diuretic activity administered orally in female rats measured as milliequivalents of K+x 100 / cage at 9 mg/kg; assay type: functional, Urine; conditions: route oral
Rattus norvegicus [45] = assay: Compound was evaluated for diuretic activity administered orally in female rats measured as milliequivalents of Cl-x 100 / cage at 9 mg/kg; assay type: functional, Urine; conditions: route oral
[46] = volume of urine at 3 mg/kg; assay type: ADME, organism-based; design: dose 3 mg/kg; conditions: in vivo

CC1(c2ccccc2)C(=O)c2cc(OCC(=O)O)c(Cl)c(Cl)c2C1=O (configuration not stated)
Increase in volume (Pan troglodytes [1]): 0.6 mL/min | Increase (Pan troglodytes [2]): 31 | Delta C urate / delta C insulin (Pan troglodytes [3]): 0.043 | Increase (Pan troglodytes [4]): 29 | Increase in volume (Pan troglodytes [5]): 0.3 mL/min | Delta C urate / delta C insulin (Pan troglodytes [6]): 0.01 | Increase (Pan troglodytes [7]): 25 | Increase (Pan troglodytes [8]): 36 | Increase (Pan troglodytes [9]): 30 | Increase (Pan troglodytes [10]): 2

CCC1C(=O)c2cc(OCC(=O)O)c(C)c(C)c2C1=O (configuration not stated)
Activity (Canis familiaris [11]): 8 | Activity (Canis familiaris [12]): 196 u equiv min-1 | Increase in volume (Pan troglodytes [1]): 1.6 mL/min | Increase (Pan troglodytes [13]): 254 | Increase (Pan troglodytes [14]): 194 | Activity (Canis familiaris [15]): 5 | Increase (Pan troglodytes [16]): 244 | Increase (Pan troglodytes [17]): 30 | Increase in volume (Pan troglodytes [18]): 1.2 mL/min | Delta C urate / delta C insulin (Pan troglodytes [3]): 0.061 | Activity (Canis familiaris [19]): 114 u equiv min-1 | Activity (Canis familiaris [20]): 24 u equiv min-1 | Urine volume (Canis familiaris [21]): 553 mL | Delta C urate / delta C insulin (Pan troglodytes [22]): 0.101 | Activity (Canis familiaris [23]): 6 | Increase (Pan troglodytes [7]): 41 | Activity (Canis familiaris [24]): 4 mL/min | Increase (Pan troglodytes [8]): 314

NS(=O)(=O)c1cc(C(=O)O)c(NCc2ccco2)cc1Cl [FUROSEMIDE]
Activity (Canis familiaris [11]): 8 | Activity (Canis familiaris [25]): 960 u equiv min-1 | Activity (Rattus norvegicus [26]): 97 | Urine volume (Canis familiaris [27]): 36 mL | Activity (Rattus norvegicus [28]): 150 | Delta C urate / delta C insulin (Pan troglodytes [29]): -0.005 | Urine volume [30]: 46 mL | Activity (Canis familiaris [31]): 141 u equiv min-1 | Increase (Pan troglodytes [1]): 0.8 mL/min | Increase in volume (Pan troglodytes [1]): 7.3 mL/min | Increase (Pan troglodytes [13]): 749 | Activity (Rattus norvegicus [32]): 60 | Urine volume [33]: 36 mL | Activity (Canis familiaris [34]): 1081 u equiv min-1 | Activity (Rattus norvegicus [35]): 253 | Activity (Rattus norvegicus [36]): 328 | Activity (Rattus norvegicus [37]): 71 | Activity (Canis familiaris [15]): 31 | Activity (Rattus norvegicus [38]): 31 | Activity (Rattus norvegicus [39]): 57 | Delta C urate / delta C insulin (Pan troglodytes [3]): -0.083 | Activity (Rattus norvegicus [40]): 228 | Activity (Rattus norvegicus [41]): 69 | Urine volume [42]: 28 mL | Activity (Canis familiaris [23]): 23 | Increase (Pan troglodytes [7]): 154 | P Increase (Pan troglodytes [7]): 100 | Urine volume (Canis familiaris [43]): 3 mL/min | Activity (Rattus norvegicus [44]): 39 | Activity (Rattus norvegicus [45]): 96 | Increase (Pan troglodytes [8]): 928 | Urine volume [46]: 26 mL | Increase (Pan troglodytes [9]): 961 | Increase (Pan troglodytes [10]): 738
